What was measured:
iCasp3 precursors = assay: Western blot (anti-HA) of transfected cell lysates, iCasp3; assay type: cell-based, monkey; conditions: for expression of iCasp3 precursors: CVI cells transfected with Glp65 and pTATA-HA-iCasp3, drug alone, anti-HA Western blot
Procedure: (§1) A double-inducible gene activation system was evaluated in vitro using a cell culture model. Three plasmids were constructed: 1) chimeric transcription factor, Glp65 containing progesterone receptor ligand-binding domain (PR-LBDΔ) (FIG. 1); 2) pTATA-HA-iCasp3 (myristoylated) carrying CBD; and 3) pTATA-HA-iCasp9 carrying CBD (FIGS. 1 and 2). The chimeric transcription factor and one of the two caspase plasmids were transfected into CVI cells (monkey kidney fibroblasts).
(§2) One plasmid expressed a tissue-specific chimeric transcription factor (Glp65) that can be activated by RU486, which functioned as the first induction in our system. In this case, an epidermal-specific keratin 14 (K14) promoter was used to direct gene expression to the keratinocytes of the basal epidermis and hair follicles (KI4-Glp65, FIG. 1; Cao et al., 2002; Kucra et al., 1996). The second plasmid expressed the target transgene. The plasmid contained four copies of the 17-mer GAL4 binding site in the promoter region (FIG. 1). Full length of caspase-3 cDNA with CID binding domain and HA-tag fragment was cloned by polymerase chain reation (PCR) from an expression vector pSH1/M-Fv2-Yama-E (Fan et al., 1999) and was then subcloned into p17×4 TATA-H2 kd vector (Bo et al., 2005) by ClaI and BamH I to generate pTATA-HA-iCasp3 […].
(§3) Cell lysates were assessed by Western blot using an anti-HA antibody. […] With the subsequent application of CID, caspase 3 and caspase 9 were activated as evidenced by the disappearance of the caspase precursors due to the hemagglutinin (HA) tag carrying a caspase cleavage consensus site, DVPD (lanes 4 in FIGS. 3 and 4).

iCasp9 = assay: Western blot (anti-HA) of transfected cell lysates, iCasp9; assay type: cell-based, monkey; conditions: for expression of iCasp9 precursors: CVI cells transfected with Glp65 and pTATA-HA-iCasp9, drug alone, anti-HA Western blot
Procedure: as §1, §2, §3

caspase-3 = assay: Clonetech ApoAlert Caspase Assay, caspase-3 activity in transfected CVI cells; assay type: cell-based, monkey; conditions: CVI cells treated for 1.5 hrs
Procedure: as §1

caspase-9 = assay: Clonetech ApoAlert Caspase Assay, caspase-9 activity in transfected CVI cells; assay type: cell-based, monkey; conditions: CVI cells treated for 1.5 hrs
Procedure: as §1

[1] = test system: K14-Glp65/iCasp3 and K14-Glp65/iCasp9 bigenic mice; assay: Skin phenotype of adult bigenic mice after RU486 pellet and intraperitoneal CID; assay type: in vivo, mouse
Procedure: A double-inducible gene activation system was tested in vivo in two bigenic mouse lines, K14-Glp65/iCasp3 and K14-Glp65/iCasp9. The bigenic mice were generated by breeding two individual mouse lines.
The breeding of the first and second transgenic mouse lines generated bigenic mice called K14-Glp65/iCasp3 and K14-Glp65/iCasp9, which harbored both RU486 and CID regulators as depicted in FIG. 1. With the application of RU486, the Glp65 fusion protein was exclusively expressed in skin keratinocytes, which subsequently initiated caspase precursor induction.
Bigenic mice between 8 and 15 weeks of age were subjected to RU486 treatment using a 21-day-release pellet that was surgically inserted beneath the skin in the region of the posterior scapula. The addition of RU486 activates the chimeric transcription factor and allows it to bind to the GAL4 DNA binding site of the caspase precursor target gene (either icasp3 or icasp9) and induces target gene expression. After seven days of RU486 treatment, CID was applied intraperitoneally to induce self-activation of caspase precursors. Placebo pellets lacking RU486 and CID-diluent were used for control groups.

[2] = test system: K14-Glp65/iCasp3 and K14-Glp65/iCasp9 bigenic mice; assay: Skin phenotype of neonates after RU486 in utero and topical CID; assay type: in vivo, mouse; conditions: RU486 in utero; topical CID twice per day, after two days; compared to control littermates
Procedure: (§4) To closely monitor the phenotypic changes of the skin of bigenic mice after the activation of caspases through the double-inducible system, we tested system in neonates by delivering RU486 in utero. The RU486 was dissolved in sesame oil and delivered intraperitoneally for 5 days at a dosage of 100 μg/kg per day into pregnant female K14-Glp65/iCasp3 and K14-Glp65/iCasp9 bigenic mice at 14.5 days gestation. To counter the abortion side-effect of RU486, progesterone (Sigma, St. Louis, Mo.) at 0.5 mg/mouse per day was applied along with RU486. Transgenic pups were treated topically with CID on their dorsal anterior-posterior (AP) axes twice per day and monitored closely for phenotypic changes or visible signs of apoptosis. Control littermates were treated with only the diluent only without CID. […] On day four, skin biopsies were taken from the back skin of the pups and fixed in 4% paraformaldehyde.

[3] = test system: adult mouse ear skins and newborn mouse back skins; assay: Microscopic and histological analysis of skin (H&E); assay type: in vivo
Procedure: The skin apoptosis was evaluated by TUNEL assay (panels j-l).
Skin sections from K14-Glp65/iCasp9 newborn mice back skin were visualized by H&E stain (panels a-c), and were immunostained by keratin 14 antibody (panels d-f). […] The skin apoptosis was evaluated by TUNEL assay (panels j-l).
Apoptosis was evaluated by TUNEL staining.

[4] = test system: adult mouse ear skins and newborn mouse back skins; assay: TUNEL staining of skin (apoptosis); assay type: in vivo
Procedure: (§5) Induction of the two caspases was then further studied by immunohistochemical staining with an anti-HA antibody. […] Apoptosis was evaluated by TUNEL staining.

caspase 3 = assay: Western blot of mouse skin tissues, induced caspase 3; assay type: in vivo; conditions: transgenic mouse skin
Procedure: as §4

caspase 9 = assay: Western blot of mouse skin tissues, induced caspase 9; assay type: in vivo; conditions: transgenic mouse skin
Procedure: as §4

caspase precursors = assay: Immunohistochemical staining of skin with anti-HA antibody; assay type: in vivo; conditions: adult mouse ear skins and newborn mouse back skins
Procedure: as §5

[5] = subsequent application of CID after RU486, CVI cells

CC[C@H](C(=O)N1CCCC[C@H]1C(=O)O[C@H](CCc1ccc(OC)c(OC)c1)c1cccc(OCC(=O)NCC(CNC(=O)COc2cccc([C@@H](CCc3ccc(OC)c(OC)c3)OC(=O)[C@@H]3CCCCN3C(=O)[C@@H](CC)c3cc(OC)c(OC)c(OC)c3)c2)CN(C)C)c1)c1cc(OC)c(OC)c(OC)c1 [CID]
expression of iCasp3 precursors (iCasp3 precursors): No caspase precursors were induced
caspase 3 activation (disappearance of the caspase precursors) (iCasp3 precursors; [5]): activated
expression of iCasp9 precursors (iCasp9): No caspase precursors were induced
caspase 9 activation (disappearance of the caspase precursors) (iCasp9; [5]): activated
increase in caspase-3 activity (caspase-3): not
increase in caspase-9 activity (caspase-9): not
skin phenotype of ears ([1]; adult bigenic mice, five days following intraperitoneal CID after seven days of RU486 pellet): reddening of the surface layers of the skin and thickness
skin phenotype of pups [2]: exhibited peeling and appeared dehydrated
skin structure [3]: normal skin structures
TUNEL-positive nuclei (apoptosis) [4]: no or basal level of apoptosis

CC#C[C@]1(O)CC[C@H]2[C@@H]3CCC4=CC(=O)CCC4=C3[C@@H](c3ccc(N(C)C)cc3)C[C@@]21C [RU486, mifepristone]
expression of iCasp3 precursors (iCasp3 precursors): induced the expression
expression of iCasp9 precursors (iCasp9): induced the expression
increase in caspase-3 activity (caspase-3): not
increase in caspase-9 activity (caspase-9): not
skin phenotype of ears ([1]; adult bigenic mice that only received RU486 treatment): did not observe this phenotype
expression level of induced caspase 3 (caspase 3): strong expression
expression level of induced caspase 9 (caspase 9): strong expression
expression of caspase precursors (anti-HA staining) (caspase precursors): Strong expression
skin structure [3]: normal skin structures
TUNEL-positive nuclei (apoptosis) [4]: no or basal level of apoptosis

— US20090293139A1, “DOUBLE-INDUCIBLE GENE ACTIVATION SYSTEM AND ITS APPLICATIONS” (The Texas A&M University System Agency State of Texas, priority 2008, published 2009)
